Consider 41 molecules from US6852744B2, “Pyrrolidine derivatives and their use as chymase inhibitor” (Dainippon Pharmaceutical Co., Ltd., priority 2000, dated 2005).

Structures are written as SMILES.

The target of this test is T1, monkey chymase (Macaca fascicularis, UniProt P56435).
T1 construct: chymase was extracted from homogenized monkey cheek pouch and stomach; from tissue; host or cells: monkey cheek pouch and stomach
T1 sequence (P56435 22-247): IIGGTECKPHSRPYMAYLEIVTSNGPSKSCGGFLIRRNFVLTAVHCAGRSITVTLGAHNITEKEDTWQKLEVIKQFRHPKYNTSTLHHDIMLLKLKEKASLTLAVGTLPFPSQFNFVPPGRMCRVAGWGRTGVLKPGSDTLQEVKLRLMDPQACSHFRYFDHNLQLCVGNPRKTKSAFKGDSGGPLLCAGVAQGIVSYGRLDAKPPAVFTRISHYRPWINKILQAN
Kind of test: Monkey chymase inhibitory activity (in vitro, angiotensin I substrate). Type of test: biochemical. The settings on record: chymase purified from monkey cheek pouch and stomach; substrate angiotensin I; 37° C.; read-out: Monkey Chymase Inhibition (IC50:nM). The procedure: The inhibitory activities of the compounds on monkey chymase and human chymase were tested in vitro. The test compounds are as shown by Compound Nos. in Tables 13 and 14.
Preparation of Monkey Chymase
Chymase was purified from monkey cheek pouch and stomach in the following manner.
Briefly, chymase was extracted from homogenized monkey cheek pouch and stomach with 0.01 mol/1000 ml sodium phosphate buffer, pH 7.4, containing 2 mol/1000 ml KCl and 0.1% Nonidet P-40 (Amresco Inc.). The solution containing chymase was applied to a heparin actigel column, and the chymase-rich fractions were collected.
Measurement of Chymase Inhibitory Activity (In Vitro Assay)
Briefly, the purified monkey or human chymase was diluted to an appropriate concentration with 0.01 mol/1000 ml sodium phosphate buffer, pH 7.4, containing 2 mol/1000 ml KCl and 0.1% Nonidet P-40 and used as enzyme solution. Angiotensin I (Peptide Institute Inc.) was diluted with water to 5 mg/ml and used as substrate solution. Test compounds were serially diluted with 10% DMSO. […] After pre-incubation of the mixture at 37° C., 20 μl of the substrate solution was added to the enzyme-test compound mixture and the new mixture was incubated at 37° C. Fifty μl of 30% trichloroacetic acid solution was finally added to stop the enzymatic reaction.
The amount of L-His-L-Leu was measured as angiotensin II produced by the enzymatic reaction. Briefly, 10 μl of the reaction mixture and 10 μl of 1% orthophthalaldehyde solution dissolved in methanol were mixed with 100 μl of 2 mol/1000 ml NaOH and kept at room temperature. The reaction was then stopped by adding 10 μl of 6 mol/1000 ml HCl.
For the molecule `CC(C)[C@H](NC(=O)c1cccnc1Oc1ccccc1)C(=O)N1CCC[C@H]1C(=O)NC(Cc1csc2ccccc12)C(=O)C(F)(F)F` (some centres unmarked) [I-A-73], the IC50 stood at 300 nM.

For the molecule `Cc1nnsc1C(=O)N[C@H](C(=O)N1CCC[C@H]1C(=O)NC(Cc1ccc2c(c1)CCC2)C(=O)C(F)(F)F)C(C)C` (some centres unmarked) [I-A-24], the IC50 was 150 nM.

As to `Cc1noc(C)c1C(=O)N[C@H](C(=O)N1CCC[C@H]1C(=O)NC(Cc1csc2ccccc12)C(=O)C(F)(F)F)C1CCCCC1` (some centres unmarked) [I-A-6], the IC50 was 33 nM.

`CC[C@H](NC(=O)c1c(C)noc1C)C(=O)N1CCC[C@H]1C(=O)NC(Cc1ccc2ccccc2c1)C(=O)C(F)(F)F` (some centres unmarked) [I-A-13]: the IC50 is 50 nM.

For the molecule `Cc1nsc(C)c1C(=O)N[C@H](C(=O)N1CCC[C@H]1C(=O)NC(Cc1cc2ccccc2s1)C(=O)C(F)(F)F)C(C)C` (some centres unmarked) [I-A-94], the IC50 is 15 nM.

Consider `CC(C)[C@H](NC(=O)CN1CCN(Cc2ccccc2)C1=O)C(=O)N1CCC[C@H]1C(=O)NC(Cc1cc2ccccc2s1)C(=O)C(F)(F)F` (some centres unmarked) [I-A-87], for which the concentration for half-maximal inhibition (IC50) worked out at 250 nM.

Regarding `Cc1nc(C)c(C(=O)N[C@H](C(=O)N2CCC[C@H]2C(=O)NC(Cc2csc3ccccc23)C(=O)C(F)(F)F)C(C)C)s1` (some centres unmarked) [I-A-65], the IC50 stood at 37 nM.

For `CC(C)[C@H](NC(=O)c1ccco1)C(=O)N1CCC[C@H]1C(=O)NC(Cc1csc2ccccc12)C(=O)C(F)(F)F` (some centres unmarked) [I-A-74], the IC50 is 350 nM.

Consider `CC(C)[C@H](NC(=O)Cn1ccc(=O)n(CC(=O)OC(C)(C)C)c1=O)C(=O)N1CCC[C@H]1C(=O)NC(Cc1ccc(Cl)cc1)C(=O)C(F)(F)F` (some centres unmarked) [I-A-90], for which the IC50 came out at 280 nM.

For the molecule `Cc1noc(C)c1C(=O)N[C@H](C(=O)N1CCC[C@H]1C(=O)NC(Cc1ccc(O)cc1)C(=O)C(F)(F)F)C(C)C` (some centres unmarked) [I-A-28], the IC50 stood at 54 nM.

In the case of `CC(C)[C@H](NC(=O)Cn1ccc(=O)n(CC(=O)O)c1=O)C(=O)N1CCC[C@H]1C(=O)NC(Cc1ccc(Cl)cc1)C(=O)C(F)(F)F` (some centres unmarked) [I-A-89], the concentration for half-maximal inhibition (IC50) was 150 nM.

For the molecule `COc1ccc(CC(NC(=O)[C@@H]2CCCN2C(=O)[C@@H](NC(=O)c2c(C)noc2C)C(C)C)C(=O)C(F)(F)F)cc1` (some centres unmarked) [I-A-37], the IC50 came to 95 nM.

As for `Cc1noc(C)c1C(=O)N[C@H](C(=O)N1CCC[C@H]1C(=O)NC(Cc1ccc(I)cc1)C(=O)C(F)(F)F)C(C)C` (some centres unmarked) [I-A-42], the IC50 was determined as 130 nM.

With `CC(C)[C@H](NC(=O)c1ccccn1)C(=O)N1CCC[C@H]1C(=O)NC(Cc1csc2ccccc12)C(=O)C(F)(F)F` (some centres unmarked) [I-A-67], the IC50 was 94 nM.

For `CC(C)[C@H](NC(=O)c1ccsc1)C(=O)N1CCC[C@H]1C(=O)NC(Cc1csc2ccccc12)C(=O)C(F)(F)F` (some centres unmarked) [I-A-72], the IC50 is 160 nM.

Regarding `Cc1noc(C)c1C(=O)N[C@@H](Cc1ccccc1)C(=O)N1CCC[C@H]1C(=O)NC(Cc1csc2ccccc12)C(=O)C(F)(F)F` (some centres unmarked) [I-A-8], the half-inhibitory concentration (IC50) came to 48 nM.

On to `Cc1noc(C)c1C(=O)N[C@@H](Cc1ccccc1)C(=O)N1CCC[C@H]1C(=O)NC(Cc1ccccc1)C(=O)C(F)(F)F` (some centres unmarked) [I-A-14], for which the IC50 stood at 59 nM.

Take `Cc1noc(C)c1C(=O)N[C@H](C(=O)N1CCC[C@H]1C(=O)NC(CC1CCCCC1)C(=O)C(F)(F)F)C(C)C` (some centres unmarked) [I-A-16]: the IC50 turned out to be 110 nM.

In the case of `Cc1onc(-c2ccccc2)c1C(=O)N[C@H](C(=O)N1CCC[C@H]1C(=O)NC(Cc1csc2ccccc12)C(=O)C(F)(F)F)C(C)C` (some centres unmarked) [I-A-7], the IC50 turned out to be 34 nM.

Take `Cc1ccccc1CC(NC(=O)[C@@H]1CCCN1C(=O)[C@@H](NC(=O)c1c(C)noc1C)C(C)C)C(=O)C(F)(F)F` (some centres unmarked) [I-A-33]: the IC50 is 73 nM.

As to `Cc1noc(C)c1C(=O)N[C@H](C(=O)N1CCC[C@H]1C(=O)NC(Cc1ccccc1F)C(=O)C(F)(F)F)C(C)C` (some centres unmarked) [I-A-27], the IC50 amounted to 51 nM.

Take `Cc1noc(C)c1C(=O)N[C@H](C(=O)N1CCC[C@H]1C(=O)NC(Cc1ccccc1C(F)(F)F)C(=O)C(F)(F)F)C(C)C` (some centres unmarked) [I-A-46]: the IC50 was found to be 170 nM.

With `CC[C@H](NC(=O)c1snnc1C)C(=O)N1CCC[C@H]1C(=O)NC(Cc1ccc2ccccc2c1)C(=O)C(F)(F)F` (some centres unmarked) [I-A-23], the IC50 is 50 nM.

For `CC(C)[C@H](NC(=O)Cn1ccc(=O)n(CC(=O)O)c1=O)C(=O)N1CCC[C@H]1C(=O)NC(Cc1ccccc1)C(=O)C(F)(F)F` (some centres unmarked) [I-A-88], the IC50 was determined as 68 nM.

In the case of `Cc1nc2c(C(=O)N[C@H](C(=O)N3CCC[C@H]3C(=O)NC(Cc3csc4ccccc34)C(=O)C(F)(F)F)C(C)C)cccc2o1` (some centres unmarked) [I-A-60], the half-maximal inhibitory concentration (IC50) was determined as 430 nM.

Take `CC(C)[C@H](NC(=O)CN1CCN(CC(=O)OC(C)(C)C)C1=O)C(=O)N1CCC[C@H]1C(=O)NC(Cc1cc2ccccc2s1)C(=O)C(F)(F)F` (some centres unmarked) [I-A-86]: the IC50 worked out at 210 nM.

For `CC(C)[C@H](NC(=O)CN1CCN(CC(=O)O)C1=O)C(=O)N1CCC[C@H]1C(=O)NC(Cc1cc2ccccc2s1)C(=O)C(F)(F)F` (some centres unmarked) [I-A-85], the IC50 was determined as 75 nM.

As for `CC(C)[C@H](NC(=O)CN1CCN(CC(=O)O)C1=O)C(=O)N1CCC[C@H]1C(=O)NC(Cc1ccc2ccccc2c1)C(=O)C(F)(F)F` (some centres unmarked) [I-A-83], the IC50 was 61 nM.

Turning to `Cc1noc(C)c1C(=O)N[C@H](C(=O)N1CCC[C@H]1C(=O)NC(Cc1ccccc1Cl)C(=O)C(F)(F)F)C(C)C` (some centres unmarked) [I-A-39], the IC50 was determined as 120 nM.

`CC(C)[C@H](NC(=O)c1noc2ccccc12)C(=O)N1CCC[C@H]1C(=O)NC(Cc1csc2ccccc12)C(=O)C(F)(F)F` (some centres unmarked) [I-A-58]: the IC50 came to 210 nM.

Consider `Cc1noc(C)c1C(=O)N[C@H](C(=O)N1CCC[C@H]1C(=O)NC(Cc1ccc(F)cc1)C(=O)C(F)(F)F)C(C)C` (some centres unmarked) [I-A-30], for which the IC50 was 65 nM.

As for `CC(C)[C@H](NC(=O)c1snnc1-c1ccccc1)C(=O)N1CCC[C@H]1C(=O)NC(Cc1csc2ccccc12)C(=O)C(F)(F)F` (some centres unmarked) [I-A-68], the IC50 turned out to be 27 nM.

For the molecule `CC(C)(C)OC(=O)Cn1c(=O)ccn(CC(=O)N[C@@H](CC2CCCCC2)C(=O)N2CCC[C@H]2C(=O)NC(Cc2ccccc2)C(=O)C(F)(F)F)c1=O` (some centres unmarked) [I-A-92], the IC50 was 860 nM.

In the case of `Cc1nc(C)c(C(=O)N[C@H](C(=O)N2CCC[C@H]2C(=O)NC(Cc2csc3ccccc23)C(=O)C(F)(F)F)C(C)C)o1` (some centres unmarked) [I-A-69], the IC50 turned out to be 98 nM.

In the case of `Cc1nnsc1C(=O)N[C@H](C(=O)N1CCC[C@H]1C(=O)NC(Cc1ccc2ccccc2c1)C(=O)C(F)(F)F)C(C)C` (some centres unmarked) [I-A-22], the IC50 worked out at 37 nM.

Regarding `Cc1noc(C)c1C(=O)N[C@H](C(=O)N1CCC[C@H]1C(=O)NC(Cc1ccc(Cl)cc1)C(=O)C(F)(F)F)C(C)C` (some centres unmarked) [I-A-43], the IC50 was determined as 140 nM.

On to `CC(C)[C@H](NC(=O)CN1CCN(CC(=O)OC(C)(C)C)C1=O)C(=O)N1CCC[C@H]1C(=O)NC(Cc1ccc2ccccc2c1)C(=O)C(F)(F)F` (some centres unmarked) [I-A-84], for which the IC50 is 190 nM.

Regarding `CC(C)[C@H](NC(=O)c1nsc(Cl)c1Cl)C(=O)N1CCC[C@H]1C(=O)NC(Cc1csc2ccccc12)C(=O)C(F)(F)F` (some centres unmarked) [I-A-75], the 50% inhibitory concentration (IC50) was 380 nM.

For the molecule `Cc1cn(CC(=O)N[C@H](C(=O)N2CCC[C@H]2C(=O)NC(Cc2cc3ccccc3s2)C(=O)C(F)(F)F)C(C)C)c(=O)n(Cc2ccccc2)c1=O` (some centres unmarked) [I-A-93], the IC50 was found to be 200 nM.

Consider `Cc1noc(C)c1C(=O)N[C@H](C(=O)N1CCC[C@H]1C(=O)NC(Cc1cc2ccccc2s1)C(=O)C(F)(F)F)C(C)C` (some centres unmarked) [I-A-98], for which the concentration for half-maximal inhibition (IC50) came to 63 nM.

As for `CC(C)[C@H](NC(=O)c1onc2ccccc12)C(=O)N1CCC[C@H]1C(=O)NC(Cc1csc2ccccc12)C(=O)C(F)(F)F` (some centres unmarked) [I-A-59], the IC50 came to 250 nM.

The IC50 is the point on the concentration scale where inhibition reaches its midpoint.
